Measurements taken from patent US8389508B2 (Glaxo Group Limited, priority 2010, dated 2013).
Where a name gives a salt, the structure may show the parent alone.

What was measured:
[1] = clinical studies, Kappos et al 2006; cited from earlier work
[2] = target: T1, human Endothelial Differentiation Gene 1 (EDG1), S1P1 receptor (Homo sapiens, UniProt P21453); assay: S1P1 Assay (Tango EDG1-bla/U2OS beta-lactamase reporter, agonist dose response); type: cell-based; details: EDG1-bla/U2OS cells, blue/green emission ratio, 10 point dose response, free base or salt form; read-out: pEC50 (S1P1 assay) (converted)
T1 construct: TEV protease site; Gal4-VP16 transcription factor; expressed in transfected cells; host or cells: EDG1-bla/U2OS (Tango GPCR-bla U2OS parental cell line)
Procedure, shortened: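 U2OS Tango cells with human EDG1 coupled to TEV site/Gal4-VP16 beta-lactamase reporter, serum-starved 24 h, then exposed overnight at 37 °C to 10-point compound dilutions. CCF4-AM FRET substrate 2 h RT; 460/530 nm ratio normalised to agonist and DMSO controls, sigmoidal fit; intrinsic activity relative to a reference compound set at 100%.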

[3] = target: T2, human Endothelial Differentiation G-protein Coupled Receptor 3 (EDG3), S1P3 receptor (Homo sapiens, UniProt Q99500); assay: S1P3 Assay (GeneBLAzer EDG3-Ga15-NFAT-bla HEK 293T beta-lactamase reporter, agonist dose response); type: cell-based; details: EDG3-Ga15-NFAT-bla HEK 293T cells, blue/green emission ratio, 10 point dose response, free base or salt form; read-out: pEC50 (S1P3 assay) (converted)
T2 construct: expressed in transfected cells; host or cells: GeneBLAzer EDG3-Ga15-NFAT-bla HEK 293T
Procedure, shortened: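 HEK 293T cells stably expressing human EDG3 with Ga15 and NFAT-beta-lactamase reporter, ~10,000 cells/well, exposed overnight at 37 °C to 10-point compound doses in charcoal-stripped serum medium. CCF4-AM substrate loaded 2 h at room temperature; 460/530 nm ratio normalized to DMSO and agonist controls, sigmoidal fit; intrinsic activity relative to reference agonist maximum (100%).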

T1 sequence (P21453 whole entry, the tested form may be a part): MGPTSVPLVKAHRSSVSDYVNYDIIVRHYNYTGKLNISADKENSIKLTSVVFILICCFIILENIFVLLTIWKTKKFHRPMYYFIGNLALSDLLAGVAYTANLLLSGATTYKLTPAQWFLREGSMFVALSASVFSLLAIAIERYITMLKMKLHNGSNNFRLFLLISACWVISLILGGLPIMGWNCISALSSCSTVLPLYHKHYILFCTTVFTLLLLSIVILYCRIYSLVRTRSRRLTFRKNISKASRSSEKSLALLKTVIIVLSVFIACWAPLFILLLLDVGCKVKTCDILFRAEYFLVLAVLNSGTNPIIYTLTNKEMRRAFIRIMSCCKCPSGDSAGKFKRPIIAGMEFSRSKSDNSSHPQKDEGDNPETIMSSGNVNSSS
T2 sequence (Q99500 whole entry): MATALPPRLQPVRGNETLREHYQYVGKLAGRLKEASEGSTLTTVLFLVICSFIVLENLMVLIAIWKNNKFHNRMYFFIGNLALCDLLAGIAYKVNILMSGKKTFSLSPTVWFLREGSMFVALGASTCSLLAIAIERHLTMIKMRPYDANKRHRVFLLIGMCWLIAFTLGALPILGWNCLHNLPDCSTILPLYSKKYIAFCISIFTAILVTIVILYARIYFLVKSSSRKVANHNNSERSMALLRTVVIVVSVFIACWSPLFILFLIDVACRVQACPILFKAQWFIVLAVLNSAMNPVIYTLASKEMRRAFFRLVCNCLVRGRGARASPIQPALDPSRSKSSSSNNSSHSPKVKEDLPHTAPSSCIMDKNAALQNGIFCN

| Compound | bradycardia on treatment [1] | EC50 [2] [nM] | EC50 [3] [nM] |
| --- | --- | --- | --- |
| CCCCCCCCc1ccc(CCC(N)(CO)CO)cc1 [FTY720] | bradycardia in the first 24 hours of treatment |  |  |
| CCc1c(CCN2CCC(C(=O)O)C2)cccc1-c1nsc(-c2ccc(CC(C)C)c(C#N)c2)n1 (centres unmarked) [Example 78] |  | ≤ 10 | > 3160 |
| CCc1c(CN2CCC(C(=O)O)C2)cccc1-c1nnc(-c2ccc(OC(C)C)c(Cl)c2)s1 (centres unmarked) [Example 44, 1-{[3-(5-{3-chloro-4-[(1-methylethyl)oxy]phenyl}-1,3,4-thiadiazol-2-yl)-2-ethylphenyl]methyl}-3-pyrrolidinecarboxylic acid trifluoroacetate] |  | ≤ 10 | > 3160 |
| CCc1c(CN2CCCC(C(=O)O)C2)cccc1-c1nnc(-c2ccc(CC(C)C)c(C#N)c2)s1 (centres unmarked) [Example 50] |  | ≤ 10 | > 10000 |
| CCc1c(CN2CCC(C(=O)O)C2)cccc1-c1nnc(-c2ccc(CC(C)C)c(C#N)c2)s1 (centres unmarked) [Example 48, 1-[(3-{5-[3-cyano-4-(2-methylpropyl)phenyl]-1,3,4-thiadiazol-2-yl}-2-ethylphenyl)methyl]-3-pyrrolidinecarboxylic acid] |  | < 1 | > 3160 |
| CCc1c(CN2CC(C(=O)O)C2)cccc1-c1nnc(-c2ccc(CC(C)C)c(C#N)c2)s1 [Example 9, 1-[(3-{5-[3-cyano-4-(2-methylpropyl)phenyl]-1,3,4-thiadiazol-2-yl}-2-ethylphenyl)methyl]-3-azetidinecarboxylic acid trifluoroacetate] |  | < 1 | > 10000 |
| CCc1c(CCN2CC(C(=O)O)C2)cccc1-c1nnc(-c2ccc(OC(C)C)c(C(F)(F)F)c2)s1 [Example 7, 1-[2-(2-ethyl-3-{5-[4-[(1-methylethyl)oxy]-3-(trifluoromethyl)phenyl]-1,3,4-thiadiazol-2-yl}phenyl)ethyl]-3-azetidinecarboxylic acid trifluoroacetate] |  | < 1 | > 3160 |
| CCc1c(CCN2C[C@H](O)C[C@H]2C(=O)O)cccc1-c1nsc(-c2ccc(OC(C)C)c(Cl)c2)n1 [Example 69] |  | < 1 | > 3160 |
| CCc1c(-c2nsc(-c3ccc(CC(C)C)c(C#N)c3)n2)cccc1C1CN(CCCC(=O)O)C1 [Example 104, 4-[3-(3-{5-[3-cyano-4-(2-methylpropyl)phenyl]-1,2,4-thiadiazol-3-yl}-2-ethylphenyl)-1-azetidinyl]butanoic acid trifluoroacetate] |  | ≤ 10 | > 10000 |
| CCc1c(CCN2CCCC(C(=O)O)C2)cccc1-c1nnc(-c2ccc(OC(C)C)c(Cl)c2)s1 (centres unmarked) [Example 56] |  | < 1 | > 3160 |
| CCc1c(CCN2CCC(CC(=O)O)CC2)cccc1-c1nsc(-c2ccc(OC(C)C)c(Cl)c2)n1 [Example 72] |  | ≤ 10 | > 3160 |
| CCc1c(CCN2CCC[C@H]2C(=O)O)cccc1-c1nsc(-c2ccc(OC(C)C)c(Cl)c2)n1 [Example 65, 1-{2-[3-(5-{3-chloro-4-[(1-methylethyl)oxy]phenyl}-1,2,4-thiadiazol-3-yl)-2-ethylphenyl]ethyl}-L-proline trifluoroacetate] |  | ≤ 10 | > 3160 |
| CCc1c(CCN2CCC[C@H]2C(=O)O)cccc1-c1nsc(-c2ccc(CC(C)C)c(C#N)c2)n1 [Example 76, 1-[2-(3-{5-[3-cyano-4-(2-methylpropyl)phenyl]-1,2,4-thiadiazol-3-yl}-2-ethylphenyl)ethyl]-L-proline trifluoroacetate] |  | ≤ 10 | > 3160 |
| COc1c(CCN2CC(C(=O)O)C2)cc(F)cc1-c1nnc(-c2ccc(CC(C)C)c(C#N)c2)s1 [Example 15, 1-{2-[3-{5-[3-cyano-4-(2-methylpropyl)phenyl]-1,3,4-thiadiazol-2-yl}-5-fluoro-2-(methyloxy)phenyl]ethyl}-3-azetidinecarboxylic acid] |  | ≤ 10 | > 10000 |
| CCc1c(CN2CCC[C@H](C(=O)O)C2)cccc1-c1nnc(-c2ccc(OC(C)C)c(Cl)c2)s1 [Example 47] |  | ≤ 10 | > 10000 |
| CCc1c(CN2CCC(C(=O)O)CC2)cccc1-c1nnc(-c2ccc(OC(C)C)c(C(F)(F)F)c2)s1 [Example 1, 1-[(2-ethyl-3-{5-[4-[(1-methylethyl)oxy]-3-(trifluoromethyl)phenyl]-1,3,4-thiadiazol-2-yl}phenyl)methyl]-4-piperidinecarboxylic acid] |  | < 1 | > 3160 |
| CCc1c(CCN2CCC[C@H]2C(=O)O)cccc1-c1cnc(-c2ccc(OC(C)C)c(C#N)c2)s1 [Example 88, 1-{2-[3-(2-{3-cyano-4-[(1-methylethyl)oxy]phenyl}-1,3-thiazol-5-yl)-2-ethylphenyl]ethyl}-L-proline trifluoroacetate] |  | ≤ 10 | > 10000 |

| Compound | bradycardia on treatment [1] | EC50 [2] [nM] | EC50 [3] [nM] |
| --- | --- | --- | --- |
| CCc1c(CCCN2CCC(C(=O)O)C2)cccc1-c1cnc(-c2ccc(OC(C)C)c(C#N)c2)s1 (centres unmarked) [Example 94] |  | ≤ 10 | > 3160 |
| CCc1c(CCN2CC[C@H](C(=O)O)C2)cccc1-c1nsc(-c2ccc(CC(C)C)c(C#N)c2)n1 [Example 79] |  | ≤ 10 | > 3160 |
| CCc1c(CN2CCC(C(=O)O)CC2)cccc1-c1cnc(-c2ccc(OC(C)C)c(C(F)(F)F)c2)s1 [Example 32, 1-[(2-ethyl-3-{2-[4-[(1-methylethyl)oxy]-3-(trifluoromethyl)phenyl]-1,3-thiazol-5-yl}phenyl)methyl]-4-piperidinecarboxylic acid] |  | < 1 | > 3160 |
| CCc1c(CCN2C[C@H](O)C[C@H]2C(=O)O)cccc1-c1cnc(-c2ccc(OC(C)C)c(C#N)c2)s1 [Example 91] |  | ≤ 10 | > 10000 |
| CCc1c(CCN2CC[C@H](C(=O)O)C2)cccc1-c1nnc(-c2ccc(CC(C)C)c(C#N)c2)s1 [Example 62] |  | < 1 | > 3160 |
| CCc1c(CCN2CCC(C(=O)O)C2)cccc1-c1nnc(-c2ccc(CC(C)C)c(C#N)c2)s1 (centres unmarked) [Example 61] |  | < 1 | > 3160 |
| CCc1c(CCN2CCC[C@H](C(=O)O)C2)cccc1-c1nsc(-c2ccc(CC(C)C)c(C#N)c2)n1 [Example 80] |  | < 1 | > 3160 |
| CCc1c(CN2CCC(C(=O)O)CC2)cccc1-c1nnc(-c2ccc(CC(C)C)c(C#N)c2)s1 [Example 8, 1-[(3-{5-[3-cyano-4-(2-methylpropyl)phenyl]-1,3,4-thiadiazol-2-yl}-2-ethylphenyl)methyl]-4-piperidinecarboxylic acid trifluoroacetate] |  | < 1 | > 3160 |
| CCc1c(CCN2CCC(C(=O)O)C2)cccc1-c1nnc(-c2ccc(OC(C)C)c(Cl)c2)s1 (centres unmarked) [Example 12, 1-{2-[3-(5-{3-chloro-4-[(1-methylethyl)oxy]phenyl}-1,3,4-thiadiazol-2-yl)-2-ethylphenyl]ethyl}-3-pyrrolidinecarboxylic acid trifluoroacetate] |  | < 1 | > 3160 |
| CCc1c(CCN2CC(C(=O)O)C2)cccc1-c1cnc(-c2ccc(OC(C)C)c(Cl)c2)s1 [Example 41, 1-{2-[3-(2-{3-chloro-4-[(1-methylethyl)oxy]phenyl}-1,3-thiazol-5-yl)-2-ethylphenyl]ethyl}-3-azetidinecarboxylic acid trifluoroacetate] |  | < 1 | > 3160 |
| CCc1c(CCN2CCCC(C(=O)O)C2)cccc1-c1nnc(-c2ccc(CC(C)C)c(C#N)c2)s1 (centres unmarked) [Example 63] |  | < 1 | > 3160 |
| CCc1c(CC2CCN(CCC(=O)O)CC2)cccc1-c1nsc(-c2ccc(OC(C)C)c(Cl)c2)n1 [Example 106, 3-(4-{[3-(5-{3-chloro-4-[(1-methylethyl)oxy]phenyl}-1,2,4-thiadiazol-3-yl)-2-ethylphenyl]methyl}-1-piperidinyl)propanoic acid trifluoroacetate] |  | < 100 | > 3160 |
| CCc1c(CN2CCC(C(=O)O)CC2)cccc1-c1nsc(-c2ccc(OC(C)C)c(C(F)(F)F)c2)n1 [Example 18, 1-[(2-ethyl-3-{5-[4-[(1-methylethyl)oxy]-3-(trifluoromethyl)phenyl]-1,2,4-thiadiazol-3-yl}phenyl)methyl]-4-piperidinecarboxylic acid trifluoroacetate] |  | < 100 | > 3160 |
| CCc1c(CN2CCC(CC(=O)O)CC2)cccc1-c1cnc(-c2ccc(OC(C)C)c(C#N)c2)s1 [Example 87] |  | < 100 | > 10000 |
| CCc1c(CN2CC(C(=O)O)C2)cccc1-c1cnc(-c2ccc(OC(C)C)c(C(F)(F)F)c2)s1 [Example 31, 1-[(2-ethyl-3-{2-[4-[(1-methylethyl)oxy]-3-(trifluoromethyl)phenyl]-1,3-thiazol-5-yl}phenyl)methyl]-3-azetidinecarboxylic acid] |  | < 1 | > 3160 |
| CCc1c(CN2CCC(C(=O)O)CC2)cccc1-c1cnc(-c2ccc(OC(C)C)c(Cl)c2)s1 [Example 36, 1-{[3-(2-{3-chloro-4-[(1-methylethyl)oxy]phenyl}-1,3-thiazol-5-yl)-2-ethylphenyl]methyl}-4-piperidinecarboxylic acid trifluoroacetate] |  | < 100 | > 10000 |
